Key:
[1] = Contact angle measurement on immobilized substrate surfaces; assay type: physicochemical; details: stainless steel or titanium; immobilization 30 min; tyramine with tyrosinase 0.4 KU/mL, dopamine without
Experimental: For experiments, dopamine and tyramine/tyrosinase were immobilized onto metal surfaces. In this regard, 450 μL of phosphate saline buffer was added to a piece of stainless steel or titanium metal and mixed with 40 μL of dopamine or tyramine having a concentration of 100 μg/mL. In the case of tyramine, tyrosinase having a concentration of 0.4 KU/mL was added in an amount of 10 μL. For effective comparison, a reaction was performed for 30 min. After immobilization, the specimens were washed three to five times with distilled water. An analysis was made of the results using contact angles and amine distributions on the surface. For contact angle measurements, droplets of 1 μL were deposited on a specimen surface and the angle at which the droplet interface meets the surface was measured using a contact angle meter (GBX Inc., France) and image analysis software.
Contact angles were measured to examine the change in hydrophilicity of bioactive molecule-immobilized surface. Droplets of 1 μL were deposited on a specimen surface after which contact angles were measured using a contact anglemeter (GBX Inc., France) equipped with image analysis software.

[2] = test system: osteoblasts (MC3T3-E1); test: Cell proliferation assay (MTT); assay type: cell-based; details: immobilized stainless steel; 1×10^4 cell/cm^2; 7 days; versus bare surface
Experimental: For cell proliferation assay, osteoblasts (MC3T3-E1) were cultured at a density of 1×10^4 cell/cm^2 for 7 days on RGD- or gelatin-immobilized stainless steel, titanium or polyurethane surfaces, followed by conducting an MTTassay. Each specimen is represented in the form of, for example, ST-RGD 0.17 which stands for the immobilization of RGD at a concentration of 0.17 μg/cm^2 on stainless steel.

Work on `NCCc1ccc(O)c(O)c1` [dopa, dopamine] yielded a contact angle [1] of 45 °.
`NCCc1ccc(O)cc1` [tyramine] showed a contact angle [1] of 30 °.
For gelatin-poly(ethylene glycol)-tyramine, the proliferation of osteoblasts [2] was “improved the proliferation”.
